Literature values as cited in patent publication US11406658B2, “Composition comprising glycyrrhizin and cosmetic and pharmaceutical uses thereof” (ATG 20 S.R.L., priority 2018, dated 2022).

Key:
[1] = background art
[2] = oral administration; background art

Row | Structure (SMILES) | solubility [1] | bioavailability [2]
1 | CC1(C)[C@@H](O[C@H]2O[C@H](C(=O)O)[C@@H](O)[C@H](O)[C@H]2O[C@@H]2O[C@H](C(=O)O)[C@@H](O)[C@H](O)[C@H]2O)CC[C@]2(C)[C@H]3C(=O)C=C4[C@@H]5C[C@@](C)(C(=O)O)CC[C@]5(C)CC[C@@]4(C)[C@]3(C)CC[C@@H]12.N [(mono)ammonium salt, (mono) ammonium glycyrrhizate] | soluble in diluted acidic or basic solutions | 
2 | CC1(C)[C@@H](O[C@H]2OC(C(=O)O)[C@@H](O)C(O)C2O[C@H]2OC(C(=O)O)[C@@H](O)C(O)C2O)CC[C@]2(C)[C@H]3C(=O)C=C4[C@@H]5C[C@@](C)(C(=O)O)CC[C@]5(C)CC[C@@]4(C)[C@]3(C)CC[C@@H]12 (stereo partly shown) [Glycyrrhizin] | not particularly water-soluble | extremely low
3 | CC1(C)[C@@H](O[C@H]2OC(C(=O)[O-])[C@@H](O)C(O)C2O[C@H]2OC(C(=O)[O-])[C@@H](O)C(O)C2O)CC[C@]2(C)[C@H]3C(=O)C=C4[C@@H]5C[C@@](C)(C(=O)O)CC[C@]5(C)CC[C@@]4(C)[C@]3(C)CC[C@@H]12.[K+].[K+] (stereo partly shown) [potassium salt, dipotassium glycyrrhizate] | water-soluble | 
